Data on one compound can be found in patent EP1466597A1, “Use of dha esters to control or prevent cardiovascular diseases” (Clinigenetics, priority 2003, dated 2004).

Test [1] concerns PMA stimulated THP1 cells. Description: Inhibition of lipoprotein (Cy3-oxLDL) uptake / lipid vesicle accumulation in macrophage foam cells. In kind it is cell-based. The following applies: PMA-differentiated THP1 cells, 2 hours with cy3 labeled oxLDL (1 µg/ml), fluorescence microscopy. How it is done: The THP-1 cell line from the European Collection of Cell Cultures, (ECACC, Wilshire, UK) were selected to generate a cellular model that mimics the differentiation and the growth of a foam cell. Typically, the cells (5.10^5 cells/ml) were maintained and grown in RPMI-1640, 10% FBS, 100 Unit/ml penicillin and 100 µg/ml streptomycin, […] L-Glutamine (Biowhittaker, Verviers , Belgium) in 37°C, 5% CO2 incubator. Medium was replaced every 2-3 days.
Human LDL were isolated from fresh plasma using a two steps KBr gradient ultracentrifugation (Leger et al., Free Rad. Res., 2002, 36, 127-142), LDL were dialyzed against NaCl 150 mM, sodium phosphate 10 mM, DTPA 10 µM (pH 7,4) for 24 hours. […]
Finally, lipoproteins were also characterized by their electrophoretic mobility. […] At the end of the labeling procedure, Cy3-OxLDL was extensively dialyzed and labeling efficiency was evaluated by measuring the absorbance at 548 nm.
To induce differentiation into macrophages, 1.5 10^5 cells/wells were plated in 96-well plates in culture medium supplemented with 10^-7 M of phorbol 12-myristate-13-acetate (Sigma) for 24 hours at 37°C, 5% CO2. […] After 2 washes with PBS, images of Cy-3 oxLDL uptake were captured using a fluorescence microscope coupled with a CCD camera. Each image was analyzed and quantified using QFluoro Software (Leica).

A further test deals with thromboxane A2. The following applies: described in EP 0 623 019; cited from earlier work.

Entries after “also recorded” stand apart in the source; their conditions may differ.

For the compound `CC/C=C\C/C=C\C/C=C\C/C=C\C/C=C\C/C=C\CCC(=O)O[C@H](CO)COP(=O)([O-])OCC[N+](C)(C)C` [lyso-PCDHA, 1-lyso, 2-DHA-glycero-phosphocholine], the “accumulation of lipid vesicles in macrophage / formation of foam cells” value in test [1] is “can block the accumulation of lipid rich vesicles in macrophage and prevent the formation of foam cell; also recorded: Dose dependent effect for the inhibition of lipid vesicles in macrophage cells; also recorded: can inhibit the accumulation of lipid vesicles in macrophage and block the formation of foam cells”. For the same compound, in the test on thromboxane A2, the platelet aggregation inhibition result is “platelet aggregation inhibitors”.
